According to patent US10238667B2, “Vitamin D receptor/SMAD genomic circuit gates fibrotic response” (Salk Institute for Biological Studies, priority 2013, dated 2019):

Test system: primary rat HSCs
Assay: Microarray expression profiling of TGFβ1 and TGFβ1+1,25(OH)2D3-treated HSCs
Format: cell-based
Text: VDR Signaling Suppresses TGFβ-induced Pro-Fibrotic Genes. […] Euclidean clustering of both rows and columns using log2 transformed microarray expression data, n=2 per treatment group. […] Data represents the mean±SEM of at least three independent experiments performed in triplicate. Asterisks denote statistically significant differences (Student's unpaired t-test, *p<0.05, **p<0.01). HSCs were isolated from 10-week old male C57BL/6J mice and Wistar rats by in situ pronase, collagenase perfusion and single-step Histogenz gradient as previously reported (Hendriks et al., 1985; Knook et al., 1982). Isolated HSCs were cultured in DMEM (Mediatech) containing 20% FBS (Hyclone) on 6-well plates for 40 hours prior to end-point assays. Total RNA from primary rat or mouse HSCs was isolated using the RNeasy mini kit (Qiagen) according to standard protocols. RNA integrity and quality was assessed using the Agilent Bioanalyzer and prepared for hybridization to Illumina rat or mouse gene expression arrays according to standard Illumina protocols. Feature extraction was performed using the Illumina GenomeStudio software. Normalization and identification of differentially expressed genes from biological duplicates was performed using […] at http://sasquatch.ucsd.edu/vampire/.

## C=C1/C(=C\C=C2/CCC[C@]3(C)C([C@H](C)CCCC(C)(C)O)CC[C@@H]23)C[C@@H](O)C[C@@H]1O (stereo partly drawn) [1,25(OH)2D3, 1α,25 dihydroxyvitamin D3]
1,25(OH)2D3 co-treatment with TGFβ1
  TGFβ1 induced genes: considerable repression
TGFβ1 1 ng/ml + 1,25(OH)2D3 100 nM, 24 h, Control 150.8, TGFβ 202.4
  Mmp13 VitD + TGF β Avg Signal: 180.0
TGFβ1 1 ng/ml + 1,25(OH)2D3 100 nM, 24 h, Control 162.6, TGFβ 225.3
  Col4a2 VitD + TGF β Avg Signal: 166.2
TGFβ1 1 ng/ml + 1,25(OH)2D3 100 nM, 24 h, Control 170.2, TGFβ 202.7
  Itga7 VitD + TGF β Avg Signal: 161.9
TGFβ1 1 ng/ml + 1,25(OH)2D3 100 nM, 24 h, Control 175.4, TGFβ 237.2
  Col16a1 VitD + TGF β Avg Signal: 173.3
TGFβ1 1 ng/ml + 1,25(OH)2D3 100 nM, 24 h, Control 185.8, TGFβ 229.6
  Col7a1 VitD + TGF β Avg Signal: 190.3
TGFβ1 1 ng/ml + 1,25(OH)2D3 100 nM, 24 h, Control 188.5, TGFβ 257.9
  Itga2 VitD + TGF β Avg Signal: 204.2
TGFβ1 1 ng/ml + 1,25(OH)2D3 100 nM, 24 h, Control 193.2, TGFβ 926.6
  LOC366205 VitD + TGFbeta AVG signal: 140.7
TGFβ1 1 ng/ml + 1,25(OH)2D3 100 nM, 24 h, Control 226.4, TGFβ 288.5
  Tgfb3 VitD + TGF β Avg Signal: 178.6
TGFβ1 1 ng/ml + 1,25(OH)2D3 100 nM, 24 h, Control 234.2, TGFβ 620
  LOC499272 VitD + TGFbeta AVG signal: 140.2
TGFβ1 1 ng/ml + 1,25(OH)2D3 100 nM, 24 h, Control 240.8, TGFβ 4341
  LOC497796 VitD + TGFbeta AVG signal: 859
TGFβ1 1 ng/ml + 1,25(OH)2D3 100 nM, 24 h, Control 257.9, TGFβ 616.4
  Col15a1 VitD + TGF β Avg Signal: 396.9
TGFβ1 1 ng/ml + 1,25(OH)2D3 100 nM, 24 h, Control 261.1, TGFβ 622.8
  Ly49si1 VitD + TGFbeta AVG signal: 134.7
TGFβ1 1 ng/ml + 1,25(OH)2D3 100 nM, 24 h, Control 277.1, TGFβ 365.1
  Tgfbr1 VitD + TGF β Avg Signal: 331.9
TGFβ1 1 ng/ml + 1,25(OH)2D3 100 nM, 24 h, Control 277.3, TGFβ 469.3
  Mmp7 VitD + TGF β Avg Signal: 164.9
TGFβ1 1 ng/ml + 1,25(OH)2D3 100 nM, 24 h, Control 281.2, TGFβ 594.6
  LOC499100 VitD + TGFbeta AVG signal: 154.4
TGFβ1 1 ng/ml + 1,25(OH)2D3 100 nM, 24 h, Control 288.8, TGFβ 687.8
  LOC305269 VitD + TGFbeta AVG signal: 170.6
TGFβ1 1 ng/ml + 1,25(OH)2D3 100 nM, 24 h, Control 289.0, TGFβ 347.6
  Tgfbr2 VitD + TGF β Avg Signal: 358.9
TGFβ1 1 ng/ml + 1,25(OH)2D3 100 nM, 24 h, Control 303.7, TGFβ 1141.2
  Stab1_predict VitD + TGFbeta AVG signal: 204.7
TGFβ1 1 ng/ml + 1,25(OH)2D3 100 nM, 24 h, Control 319.6, TGFβ 516.3
  Mmp19 VitD + TGF β Avg Signal: 308.7
TGFβ1 1 ng/ml + 1,25(OH)2D3 100 nM, 24 h, Control 337.9, TGFβ 553.9
  Cdh1 VitD + TGFbeta AVG signal: 126.8
TGFβ1 1 ng/ml + 1,25(OH)2D3 100 nM, 24 h, Control 426.1, TGFβ 842.9
  Dcir2 VitD + TGFbeta AVG signal: 184.9
TGFβ1 1 ng/ml + 1,25(OH)2D3 100 nM, 24 h, Control 429.3, TGFβ 801.8
  Cysltr1 VitD + TGFbeta AVG signal: 183.5
TGFβ1 1 ng/ml + 1,25(OH)2D3 100 nM, 24 h, Control 429.6, TGFβ 887.6
  LOC501570 VitD + TGFbeta AVG signal: 192.5
TGFβ1 1 ng/ml + 1,25(OH)2D3 100 nM, 24 h, Control 457.8, TGFβ 912.3
  Tmem26_pred VitD + TGFbeta AVG signal: 237.3
TGFβ1 1 ng/ml + 1,25(OH)2D3 100 nM, 24 h, Control 462.9, TGFβ 913.7
  Pirb VitD + TGFbeta AVG signal: 171.1
TGFβ1 1 ng/ml + 1,25(OH)2D3 100 nM, 24 h, Control 469.9, TGFβ 892.8
  LOC366608 VitD + TGFbeta AVG signal: 203.6
TGFβ1 1 ng/ml + 1,25(OH)2D3 100 nM, 24 h, Control 474.2, TGFβ 1429.1
  Col1a1 VitD + TGF β Avg Signal: 557.9
TGFβ1 1 ng/ml + 1,25(OH)2D3 100 nM, 24 h, Control 495.5, TGFβ 966.5
  Loxl2 VitD + TGF β Avg Signal: 597.0
TGFβ1 1 ng/ml + 1,25(OH)2D3 100 nM, 24 h, Control 500.7, TGFβ 913.0
  Timp2 VitD + TGF β Avg Signal: 751.7
TGFβ1 1 ng/ml + 1,25(OH)2D3 100 nM, 24 h, Control 513.9, TGFβ 965.1
  Col3a1 VitD + TGF β Avg Signal: 287.6
TGFβ1 1 ng/ml + 1,25(OH)2D3 100 nM, 24 h, Control 526.5, TGFβ 848.2
  Col6a3 VitD + TGF β Avg Signal: 442.6
TGFβ1 1 ng/ml + 1,25(OH)2D3 100 nM, 24 h, Control 537.2, TGFβ 1045.1
  Loxl1 VitD + TGF β Avg Signal: 560.1
TGFβ1 1 ng/ml + 1,25(OH)2D3 100 nM, 24 h, Control 538.9, TGFβ 1177
  Ly49si2 VitD + TGFbeta AVG signal: 256
TGFβ1 1 ng/ml + 1,25(OH)2D3 100 nM, 24 h, Control 557.1, TGFβ 1013.7
  LOC361699 VitD + TGFbeta AVG signal: 263.7
TGFβ1 1 ng/ml + 1,25(OH)2D3 100 nM, 24 h, Control 561.7, TGFβ 1042.3
  Mmp10 VitD + TGF β Avg Signal: 764.6
TGFβ1 1 ng/ml + 1,25(OH)2D3 100 nM, 24 h, Control 574.2, TGFβ 1285.9
  Col8a1 VitD + TGF β Avg Signal: 773.5
TGFβ1 1 ng/ml + 1,25(OH)2D3 100 nM, 24 h, Control 597, TGFβ 1047.9
  Ccl12_predicte VitD + TGFbeta AVG signal: 191.1
TGFβ1 1 ng/ml + 1,25(OH)2D3 100 nM, 24 h, Control 611.1, TGFβ 1418.9
  Col5a1 VitD + TGF β Avg Signal: 673.0
TGFβ1 1 ng/ml + 1,25(OH)2D3 100 nM, 24 h, Control 664, TGFβ 1503.8
  LOC304349 VitD + TGFbeta AVG signal: 211.1
TGFβ1 1 ng/ml + 1,25(OH)2D3 100 nM, 24 h, Control 814.7, TGFβ 1308.4
  Tgfb2 VitD + TGF β Avg Signal: 388.0
TGFβ1 1 ng/ml + 1,25(OH)2D3 100 nM, 24 h, Control 827.8, TGFβ 2611.8
  LOC498751 VitD + TGFbeta AVG signal: 516.6
TGFβ1 1 ng/ml + 1,25(OH)2D3 100 nM, 24 h, Control 831.7, TGFβ 1893.5
  Emr1 VitD + TGFbeta AVG signal: 319.1
TGFβ1 1 ng/ml + 1,25(OH)2D3 100 nM, 24 h, Control 858.7, TGFβ 1425.7
  LOC502904 VitD + TGFbeta AVG signal: 213.6
TGFβ1 1 ng/ml + 1,25(OH)2D3 100 nM, 24 h, Control 880.0, TGFβ 1227.3
  Itga5 VitD + TGF β Avg Signal: 1158.1
TGFβ1 1 ng/ml + 1,25(OH)2D3 100 nM, 24 h, Control 906.9, TGFβ 2511.6
  Cacnb3 VitD + TGFbeta AVG signal: 415.9
TGFβ1 1 ng/ml + 1,25(OH)2D3 100 nM, 24 h, Control 954.6, TGFβ 1628.6, listed as VitD
  Bmp2 VitD + TGFbeta AVG signal: 305
TGFβ1 1 ng/ml + 1,25(OH)2D3 100 nM, 24 h, Control 1039.2, TGFβ 4083.5
  Gas7 VitD + TGFbeta AVG signal: 832.8
TGFβ1 1 ng/ml + 1,25(OH)2D3 100 nM, 24 h, Control 1044.7, TGFβ 1762.9
  Slamf9_predic VitD + TGFbeta AVG signal: 417.9
TGFβ1 1 ng/ml + 1,25(OH)2D3 100 nM, 24 h, Control 1128.4, TGFβ 1464.4
  Itga4 VitD + TGF β Avg Signal: 380.6
TGFβ1 1 ng/ml + 1,25(OH)2D3 100 nM, 24 h, Control 1156.2, TGFβ 1908.8
  LOC498741 VitD + TGFbeta AVG signal: 314.1
TGFβ1 1 ng/ml + 1,25(OH)2D3 100 nM, 24 h, Control 1297, TGFβ 2520.2
  Hod VitD + TGFbeta AVG signal: 495.9
TGFβ1 1 ng/ml + 1,25(OH)2D3 100 nM, 24 h, Control 1399.7, TGFβ 2318.7
  LOC502907 VitD + TGFbeta AVG signal: 241.9
TGFβ1 1 ng/ml + 1,25(OH)2D3 100 nM, 24 h, Control 1582.3, TGFβ 2387
  Ptprc VitD + TGFbeta AVG signal: 569.1
TGFβ1 1 ng/ml + 1,25(OH)2D3 100 nM, 24 h, Control 1689.7, TGFβ 2297.0
  Itgam VitD + TGF β Avg Signal: 658.0
TGFβ1 1 ng/ml + 1,25(OH)2D3 100 nM, 24 h, Control 1708.1, TGFβ 2261.0
  Col4a1 VitD + TGF β Avg Signal: 1315.2
TGFβ1 1 ng/ml + 1,25(OH)2D3 100 nM, 24 h, Control 1813.1, TGFβ 4284.5
  Chst1_predict VitD + TGFbeta AVG signal: 337.6
TGFβ1 1 ng/ml + 1,25(OH)2D3 100 nM, 24 h, Control 1943.2, TGFβ 4575.5
  Dsipi VitD + TGFbeta AVG signal: 1152
TGFβ1 1 ng/ml + 1,25(OH)2D3 100 nM, 24 h, Control 2069.5, TGFβ 4680.9
  Ccr5 VitD + TGFbeta AVG signal: 362.3
TGFβ1 1 ng/ml + 1,25(OH)2D3 100 nM, 24 h, Control 2145.1, TGFβ 4760.5
  Itgav VitD + TGF β Avg Signal: 2417.2
TGFβ1 1 ng/ml + 1,25(OH)2D3 100 nM, 24 h, Control 2153.3, TGFβ 4197.3
  Mmp9 VitD + TGF β Avg Signal: 2676.4
TGFβ1 1 ng/ml + 1,25(OH)2D3 100 nM, 24 h, Control 2181.0, TGFβ 3452.2
  Col5a2 VitD + TGF β Avg Signal: 1696.8
TGFβ1 1 ng/ml + 1,25(OH)2D3 100 nM, 24 h, Control 2260.8, TGFβ 7481.1
  Lox VitD + TGF β Avg Signal: 4219.9
TGFβ1 1 ng/ml + 1,25(OH)2D3 100 nM, 24 h, Control 2562.8, TGFβ 3888.4
  LOC499356 VitD + TGFbeta AVG signal: 352.7
TGFβ1 1 ng/ml + 1,25(OH)2D3 100 nM, 24 h, Control 2632.5, TGFβ 7594.5
  Fchsd2_predic VitD + TGFbeta AVG signal: 1565
TGFβ1 1 ng/ml + 1,25(OH)2D3 100 nM, 24 h, Control 2922.5, TGFβ 5480.4
  Tgfb1 VitD + TGF β Avg Signal: 4391.0
TGFβ1 1 ng/ml + 1,25(OH)2D3 100 nM, 24 h, Control 3327, TGFβ 14356
  Ms4a4a_predi VitD + TGFbeta AVG signal: 810.7
TGFβ1 1 ng/ml + 1,25(OH)2D3 100 nM, 24 h, Control 3330.8, TGFβ 6754.6
  Pcsk1 VitD + TGFbeta AVG signal: 912.4
TGFβ1 1 ng/ml + 1,25(OH)2D3 100 nM, 24 h, Control 3823.9, TGFβ 7658.8
  Ms4a6a_predi VitD + TGFbeta AVG signal: 1696
